Results published in patent US20250346603A1, “TRICYCLIC COMPOUNDS AS PI3KALPHA INHIBITORS” (Pikavation Therapeutics, Inc., priority 2022, published 2025).

Columns and labels:
[1] = tested on: T47D (PIK3CA H1047R) cells; assay: pS473 AKT assay in T47D cells; format: cell-based; settings: Homo sapiens, pSer473 AKT, 2 h treatment, read-out: T47D_IC50
Description: (§1) SKBR3 (PIK3CA WT), MCF7 (PIK3CA E545K), and T47D (PIK3CA H1047R) cells were cultured using 10-cm petri dishes with recommended medium. One day before the assay, cells were seeded in 96-well plates. After overnight incubation, cells were treated with different concentrations of PI3Kα inhibitors for 2 h. Cells were then fixed using 4% paraformaldehyde at room temperature for 20 min. Cells were aspirated with 4% paraformaldehyde, and washed using 1× regular phosphate buffered saline 3 times, 5 min each. Any residual phosphate buffered saline was aspirated and cells were blocked using 10% goat serum containing 1% bovine serum albumin and 0.3% Triton X-100 at room temperature for 1 h. Without any additional washing, primary antibodies (rabbit anti-pSer473 AKT) were diluted using blocking buffer and added at a final volume of 50 microliter per well. Assay plates with primary antibodies were maintained overnight at 4° C. Cells were washed using 1× regular phosphate buffered saline 3 times, 5 min each. After the final wash, cells were incubated with horseradish peroxidase-conjugated secondary antibodies (goat Anti-rabbit IgG) and diluted using the same blocking buffer at room temperature for 1 h. Cells were then washed thoroughly using 1× regular phosphate buffered saline 3 times, 5 min each, and any residual phosphate buffered saline was aspirated. Super-Signal ELISA Pico Chemiluminescent Substrate was then added at a final volume of 100 microliter per well. Plates were read on a i3× Multi-Mode Microplate Reader and IC50 values calculated using GraphPad Prism software.
(§2) Results of the assay described above are presented in Table A. “++++” indicates an IC50 less than 1000 nM; “+++” indicates an IC50 greater than or equal to 1000 nM but less than 5000 nM; “++” indicates an IC50 greater than or equal to 5000 nM but less than 10000 nM; and “+” indicates an IC50 greater than or equal to 10000 nM.

[2] = tested on: SKBR3 (PIK3CA WT) cells; assay: pS473 AKT assay in SKBR3 cells; format: cell-based; settings: Homo sapiens, SK-BR-3, pSer473 AKT, 2 h treatment, read-out: SKBR3_IC50
Description: as §1, §2

IC50 [1] [nM] | IC50 [2] [nM] | SMILES
< 1000 | ≥ 10000 | Cc1cc(C(C)Nc2ccccc2C(=O)O)c2nc(N3CCC(C)(C)CC3)n3ccnc3c2c1 (stereo not drawn) [Example 1, 2-((1-(5-(4,4-Dimethylpiperidin-1-yl)-9-methylimidazo[1,2-c]quinazolin-7-yl)ethyl)amino)benzoic acid]
< 1000 | ≥ 10000 | Cc1cc(C(C)Nc2ccccc2C(=O)O)c2nc(N3Cc4ccccc4C3)n3ccnc3c2c1 (stereo not drawn) [Example 2, 2-((1-(5-(Isoindolin-2-yl)-9-methylimidazo[1,2-c]quinazolin-7-yl)ethyl)amino)benzoic acid]
< 1000 | ≥ 10000 | Cc1cc(C(C)Nc2ccccc2C(=O)O)c2nc(N3CCC(C)(C)CC3)n3ncnc3c2c1 (stereo not drawn) [Example 3, 2-((1-(5-(4,4-Dimethylpiperidin-1-yl)-9-methyl-[1,2,4]triazolo[1,5-c]quinazolin-7-yl)ethyl)amino)benzoic acid]
< 1000 | ≥ 10000 | Cc1cc(C(C)Nc2ccccc2C(=O)O)c2nc(N3CCC(C)(C)CC3)n3cnnc3c2c1 (stereo not drawn) [Example 4, 2-((1-(5-(4,4-Dimethylpiperidin-1-yl)-9-methyl-[1,2,4]triazolo[4,3-c]quinazolin-7-yl)ethyl)amino)benzoic acid]
< 1000 | ≥ 10000 | Cc1cc(C(C)Nc2ccccc2C(=O)O)c2nc(N3Cc4ccccc4C3)n3cnnc3c2c1 (stereo not drawn) [Example 5, 2-((1-(5-(Isoindolin-2-yl)-9-methyl-[1,2,4]triazolo[4,3-c]quinazolin-7-yl)ethyl)amino)benzoic acid]
< 1000 | ≥ 10000 | Cc1cc(C(C)Nc2ccccc2C(=O)O)c2nc(N3CCC(C)(C)C3)n3cnnc3c2c1 (stereo not drawn) [Example 6, 2-((1-(5-(3,3-Dimethylpyrrolidin-1-yl)-9-methyl-[1,2,4]triazolo[4,3-c]quinazolin-7-yl)ethyl)amino)benzoic acid]
< 1000 | ≥ 10000 | Cc1cc(C(C)Nc2ccccc2C(=O)O)c2nc(N3CC(C)(C)C3)n3cnnc3c2c1 (stereo not drawn) [Example 7, 2-((1-(5-(3,3-Dimethylazetidin-1-yl)-9-methyl-[1,2,4]triazolo[4,3-c]quinazolin-7-yl)ethyl)amino)benzoic acid]
1000 to 5000 | ≥ 10000 | Cc1cc(C(C)Nc2ccccc2C(=O)O)c2nc(N3CCC(C)(C)CC3)n3nnnc3c2c1 (stereo not drawn) [Example 8, 2-((1-(5-(4,4-dimethylpiperidin-1-yl)-9-methyltetrazolo[1,5-c]quinazolin-7-yl)ethyl)amino)benzoic acid]
< 1000 |  | Cc1cc(C(C)Nc2ccccc2C(=O)O)c2nc(-c3cccc(C#N)c3)n3cnnc3c2c1 (stereo not drawn) [Example 9, 2-((1-(5-(3-Cyanophenyl)-9-methyl-[1,2,4]triazolo[4,3-c]quinazolin-7-yl)ethyl)amino)benzoic acid]
< 1000 |  | Cc1cc(C(C)Nc2ccc(Cl)nc2C(=O)O)c2nc(-c3cccc(C#N)c3)n3cnnc3c2c1 (stereo not drawn) [Example 10, 6-Chloro-3-((1-(5-(3-cyanophenyl)-9-methyl-[1,2,4]triazolo[4,3-c]quinazolin-7-yl)ethyl)amino)picolinic acid]
< 1000 |  | Cc1cc(C(C)Nc2ccccc2C(=O)O)c2nc(-c3cc(F)cc(F)c3)n3cnnc3c2c1 (stereo not drawn) [Example 11, 2-((1-(5-(3,5-Difluorophenyl)-9-methyl-[1,2,4]triazolo[4,3-c]quinazolin-7-yl)ethyl)amino)benzoic acid]
1000 to 5000 |  | CCc1ncn2c3c(C(C)Nc4ccc(C)nc4C(=O)O)cc(C)cc3c3nncn3c12 (stereo not drawn) [Example 12, 3-((1-(5-Ethyl-11-methylimidazo[1,5-a][1,2,4]triazolo[4,3-c]quinazolin-9-yl)ethyl)amino)-6-methylpicolinic acid]
< 1000 |  | Cc1cc(C(C)Nc2ccc(Cl)nc2-c2ccncc2)c2nc(N3CCC(C)(C)CC3)n3cnnc3c2c1 (stereo not drawn) [Example 13, 6-Chloro-N-(1-(5-(4,4-dimethylpiperidin-1-yl)-9-methyl-[1,2,4]triazolo[4,3-c]quinazolin-7-yl)ethyl)-[2,4′-bipyridin]-3-amine]
< 1000 |  | CNC(=O)c1ccc(-c2nc(Cl)ccc2NC(C)c2cc(C)cc3c2nc(N2CCC(C)(C)CC2)n2cnnc32)cn1 (stereo not drawn) [Example 14, 6-Chloro-3-((1-(5-(4,4-dimethylpiperidin-1-yl)-9-methyl-[1,2,4]triazolo[4,3-c]quinazolin-7-yl)ethyl)amino)-N-methyl-[2,3′-bipyridine]-6′-carboxamide]
< 1000 |  | Cc1cc(C(C)Nc2ccc(Cl)nc2-c2cnn(C)c2)c2nc(N3CCN(C)CC3)n3cnnc3c2c1 (stereo not drawn) [Example 15, 6-Chloro-2-(1-methyl-1H-pyrazol-4-yl)-N-(1-(9-methyl-5-(4-methylpiperazin-1-yl)-[1,2,4]triazolo[4,3-c]quinazolin-7-yl)ethyl)pyridin-3-amine]
< 1000 |  | Cc1cc(C(C)Nc2ccc(Cl)nc2-c2ccnn2C)c2nc(N3CCN(C)CC3)n3cnnc3c2c1 (stereo not drawn) [Example 16, 6-Chloro-2-(1-methyl-1H-pyrazol-5-yl)-N-(1-(9-methyl-5-(4-methylpiperazin-1-yl)-[1,2,4]triazolo[4,3-c]quinazolin-7-yl)ethyl)pyridin-3-amine]
